Measured values reported in patent US20120196887A1, “METHODS AND COMPOSITIONS FOR IMPROVED RIFAMYCIN THERAPIES” (priority 2011, published 2012).
Values after ≈ are worked out from the molar mass of the structure shown. Values joined by “and” are separate entries in the source; they are usually repeats but may differ in a detail not shown here. Equal entries are not always repeated. Where two headings read alike, the source gives them in different places.

Legend:
[1] = test system: Enterotoxigenic Escherichia coli (ETEC) strain H10407; experiment: Growth of ETEC strain H10407 with rifaximin in the presence and absence of bile acids (OD600 / cell density); type: cell-based
Procedure: Enterotoxigenic Escherichia coli (ETEC) strain H10407 was used as a model bacteria in all the susceptibility experiments.
Equimolar concentrations (0.67 mM) of each of these bile acids were pooled (4 mM total bile acids) for the experiments. In order to determine the Total Human Bile Concentration, a sample of human bile taken after cholecystectomy was kindly provided by Dr. David Graham (Department of Medicine, Veterans Affairs Medical Center and the Division of Molecular Virology, Baylor College of Medicine, Houston, Tex., and Director of Study Design and Clinical Research Core, Texas Medical Center Digestive Disease. Center). The total bile acids concentration was determined using the Diazyme Total Bile Acids assay (Diazyme Laboratories, CA) following the protocol provided by the manufacturer.
In each experiment, an overnight culture of E. coli H10407 was added to the LB media to OD600 of 0.04 (approximately 4×10^7 cells/mL) and incubated for 4-6 hours at 37° C. in a shaker at 200 rpm. Optical density measurements (OD600) were determined every 30 minutes. The experiment was replicated four times and average OD used for the analysis. […]

[2] = test system: Enterotoxigenic Escherichia coli (ETEC) strain H10407; experiment: as above; type: cell-based; remark: listed apart in the source
[3] = test system: beta-galactosidase expressed by E. coli H10407; experiment: Beta-galactosidase assay (IPTG-induced expression, Miller Units); type: cell-based, Escherichia coli; settings: rifaximin added to the culture medium (8, 16, 32 μg/mL), no bile acids
Procedure: Beta-Galactosidase Assay: Beta-galactosidase is an essential enzyme required by E. coli to metabolize lactose during conditions when available glucose levels are low, but lactose levels are high. When expression of beta-galactosidase is inhibited in a media containing limiting amounts of glucose but high amounts of lactose, once the glucose in the media is exhausted bacterial death occurs. […] To, 1.5 mL microfuge tubes, 50 μL of the induced culture was added to 200 μL of permeabilization solution (0.8 mg/mL hexadecyl trimethylammonium bromide (CTAB), 0.4 mg/mL sodium deoxycholate, 200 mM dibasic sodium phosphate (Na2HPO4), 20 mM potassium chloride (KCl), 2 mM magnesium sulfate (MgSO4), and 5.4 μL/mL beta-mercaptoethanol. After 30 minutes incubation at 30° C., 600 μL of substrate solution (60 mM Na2HPO4, 40 mM NaH2PO4, 10 mM KCl, 20 μg/mL CTAB, 1 mg/mL O-nitrophenyl-β-D-galactoside (ONPG), and 2.7 μL/mL β-mercaptoethanol) was added and the time of addition was recorded. The incubation was allowed to continue at 30° C. for 40 minutes, after which 350 μL of 2 M sodium carbonate (Na2CO3) was added to stop the reaction. The assay, tubes were centrifuged at 15000×g for 15 minutes and absorbance measurements at 420 nm were made in triplicate using the supernatants.
The concentration of β-galactosidase in Miller Units was calculated as: […]

[4] = test system: Salmonella enterica (ATCC #14028); experiment: Growth (OD600) and total protein of Salmonella enterica with rifaximin and bile acids; type: cell-based; settings: 32 μg/mL rifaximin + 4 mM total bile acids
Procedure: A second culture of Salmonella enterica bacteria in LB media to which was added 4 mM of bile acids (comprising an equimolar mixture of each of the bile acids: cholic, deoxycholic, chenodeoxycholic, glycocholic, lithocholic, and taurocholic acids at pH 7.4).

[5] = test system: Enteroaggregative E. coli; experiment: Minimal inhibitory concentration (MIC), Enteroaggregative E. coli; type: cell-based; settings: Escherichia coli; Enteroaggregative strain of E. coli used
[6] = test system: Salmonella enterica (ATCC #14028); experiment: Minimal inhibitory concentration (MIC), Salmonella enterica; type: cell-based; settings: ATCC14028
[7] = test system: coliform flora; settings: cited from earlier work
[8] = test system: Enteroaggregative E. coli; experiment: Growth (OD600) and total protein of Enteroaggregative E. coli with rifaximin and bile acids; type: cell-based; settings: 16 μg/mL rifaximin + 4 mM total bile acids
Procedure: A second culture of Enteroaggregative E. coli bacteria in LB media to which was added 4 mM of bile acids (comprising an equimolar mixture of each of the bile acids: cholic, deoxycholic, chenodeoxycholic, glycocholic, lithocholic, and taurocholic acids at pH 7.4).

[9] = test system: E. coli H10407; experiment: Total protein content of bacteria treated with rifaximin and bile acids (Bradford assay); type: cell-based, Escherichia coli; settings: 16 μg/mL rifaximin + bile acids vs rifaximin without bile acids; 4 hours incubation
Procedure: Aliquots (1 mL) of the culture in each tube were taken every hour for total protein determination. In order to lyse the cells and release the protein, 300 μL of permeabilization solution (2.4 mg/mL hexadecyl trimethylammonium bromide, 1.2 mg/mL sodium deoxycholate, 600 mM dibasic sodium phosphate, 60 mM potassium chloride, 6 mM magnesium sulfate, and 16 μL/mL beta-mercaptoethanol) was added. The tubes were incubated for one hour at room temperature and then centrifuged at 15000×g for 20 minutes. The protein concentration was determined in triplicate using the Bradford assay (Bradford, M. M., A rapid and sensitive method for the quantitation of microgram quantities of protein utilizing the principle of protein-dye binding. Anal Biochem. 72:248-54, 1976) using bovine serum albumin (BSA) as the standard. Each experiment was repeated three times with the average and standard deviation reported.

[10] = test system: Clostridium difficile; settings: cited from earlier work
[11] = test system: Shigella flexneri (serotype 2B); experiment: Minimal inhibitory concentration (MIC), Shigella flexneri; type: cell-based
[12] = test system: Shigella flexneri (serotype 2B); experiment: Growth (OD600) and total protein of Shigella flexneri with rifaximin and bile acids; type: cell-based; settings: 32 μg/mL rifaximin + 4 mM total bile acids
Procedure: A second culture of Shigella flexneri (serotype 2B) bacteria in LB media to which was added 4 mM of bile acids (comprising an equimolar mixture of each of the bile acids: cholic, deoxycholic, chenodeoxycholic, glycocholic, lithocholic, and taurocholic acids at pH 7.4).

[13] = test system: Enterotoxigenic Escherichia coli (ETEC) strain H10407; settings: cited from earlier work
[14] = 4 mM bile acid + 16 μg/mL rifaximin vs 16 μg/mL rifaximin alone, 4 hours
[15] = bile acid 4 mM combined with 16 μg/mL rifaximin, after 4 hours of incubation
[16] = bile acid alone, no rifaximin, after 4 hours of incubation

With `C[C@H](CCC(=O)O)[C@H]1CC[C@H]2[C@@H]3[C@H](O)C[C@@H]4C[C@H](O)CC[C@]4(C)[C@H]3CC[C@]12C` [Chenodeoxycholic acid] the “PERCENT DECREASE IN CELL DENSITY ON ADDITION OF BILE ACIDS TO RIFAXIMIN” value [1, 14] was 89.2 ± 0.49%, the “PERCENT DECREASE IN CELL DENSITY ON ADDITION OF BILE ACIDS TO RIFAXIMIN” value ([1]; 4 mM bile acid + 16 μg/mL rifaximin vs 16 μg/mL rifaximin alone, 4 hours, listed as chenodeoxycholic acid) was 89.2% and the “Cell density, 4 mM BILE ACIDS + 16 μg/mL RIFAXIMIN” value [1, 15] was 0.53 ± 0.51 ×10^8 bacteria/milliliter of c. For the same molecule, the “Cell density, 4 mM BILE ACIDS” value [2, 16] was 7.0 ± 0.06 ×10^8 bacteria/milliliter of c.

With `C[C@H](CCC(=O)O)[C@H]1CC[C@H]2[C@@H]3[C@H](O)C[C@@H]4C[C@H](O)CC[C@]4(C)[C@H]3C[C@H](O)[C@]12C` [Cholic acid] the “PERCENT DECREASE IN CELL DENSITY ON ADDITION OF BILE ACIDS TO RIFAXIMIN” value [1, 14] was 95.5 ± 0.80%, the “PERCENT DECREASE IN CELL DENSITY ON ADDITION OF BILE ACIDS TO RIFAXIMIN” value ([1]; 4 mM bile acid + 16 μg/mL rifaximin vs 16 μg/mL rifaximin alone, 4 hours, listed as cholic acid) was 95.5% and the “Cell density, 4 mM BILE ACIDS + 16 μg/mL RIFAXIMIN” value [1, 15] was 0.22 ± 0.20 ×10^8 bacteria/milliliter of c. For the same molecule, the “Cell density, 4 mM BILE ACIDS” value [2, 16] was 11 ± 0.46 ×10^8 bacteria/milliliter of c.

For `C[C@H](CCC(=O)O)[C@H]1CC[C@H]2[C@@H]3CC[C@@H]4C[C@H](O)CC[C@]4(C)[C@H]3C[C@H](O)[C@]12C` [Deoxycholic acid], the “PERCENT DECREASE IN CELL DENSITY ON ADDITION OF BILE ACIDS TO RIFAXIMIN” value [1, 14] was 93.8 ± 0.51%, the “PERCENT DECREASE IN CELL DENSITY ON ADDITION OF BILE ACIDS TO RIFAXIMIN” value ([1]; 4 mM bile acid + 16 μg/mL rifaximin vs 16 μg/mL rifaximin alone, 4 hours, listed as deoxycholic acid) was 93.8% and the “Cell density, 4 mM BILE ACIDS + 16 μg/mL RIFAXIMIN” value [1, 15] was 0.30 ± 0.49 ×10^8 bacteria/milliliter of c. For the same molecule, the “Cell density, 4 mM BILE ACIDS” value [2, 16] was 3.9 ± 0.34 ×10^8 bacteria/milliliter of c.

For `C[C@H](CCC(=O)NCC(=O)O)[C@H]1CC[C@H]2[C@@H]3[C@H](O)C[C@@H]4C[C@H](O)CC[C@]4(C)[C@H]3C[C@H](O)[C@]12C` [Glycocholic acid], the “PERCENT DECREASE IN CELL DENSITY ON ADDITION OF BILE ACIDS TO RIFAXIMIN” value [1, 14] was 80.8 ± 0.40%, the “PERCENT DECREASE IN CELL DENSITY ON ADDITION OF BILE ACIDS TO RIFAXIMIN” value ([1]; 4 mM bile acid + 16 μg/mL rifaximin vs 16 μg/mL rifaximin alone, 4 hours, listed as glycocholic acid) was 80.8% and the “Cell density, 4 mM BILE ACIDS + 16 μg/mL RIFAXIMIN” value [1, 15] was 0.94 ± 0.60 ×10^8 bacteria/milliliter of c. The “Cell density, 4 mM BILE ACIDS” value [2, 16] was 14 ± 0.32 ×10^8 bacteria/milliliter of c.

With `C[C@H](CCC(=O)O)[C@H]1CC[C@H]2[C@@H]3CC[C@@H]4C[C@H](O)CC[C@]4(C)[C@H]3CC[C@]12C` [Lithocholic acid] the “PERCENT DECREASE IN CELL DENSITY ON ADDITION OF BILE ACIDS TO RIFAXIMIN” value [1, 14] was 43.9 ± 0.73%, the “PERCENT DECREASE IN CELL DENSITY ON ADDITION OF BILE ACIDS TO RIFAXIMIN” value ([1]; 4 mM bile acid + 16 μg/mL rifaximin vs 16 μg/mL rifaximin alone, 4 hours, listed as lithocholic acid) was 43.9% and the “Cell density, 4 mM BILE ACIDS + 16 μg/mL RIFAXIMIN” value [1, 15] was 2.8 ± 0.27 ×10^8 bacteria/milliliter of c. For the same molecule, the “Cell density, 4 mM BILE ACIDS” value [2, 16] was 6.6 ± 0.25 ×10^8 bacteria/milliliter of c.

In the case of `C[C@H](CCC(=O)NCCS(=O)(=O)O)[C@H]1CC[C@H]2[C@@H]3[C@H](O)C[C@@H]4C[C@H](O)CC[C@]4(C)[C@H]3C[C@H](O)[C@]12C` [Taurocholic acid], the “Cell density, 4 mM BILE ACIDS + 16 μg/mL RIFAXIMIN” value [1] is reported as 1.1 ± 0.23, the “PERCENT DECREASE IN CELL DENSITY ON ADDITION OF BILE ACIDS TO RIFAXIMIN” value [1] is reported as 77.6% and 77.6 ± 0.77% and the “Cell density, 4 mM BILE ACIDS” value [2] is reported as 14 ± 0.51.

For `CO[C@H]1/C=C/O[C@@]2(C)Oc3c(C)c(O)c4c(O)c(c5c(nc6cc(C)ccn65)c4c3C2=O)NC(=O)/C(C)=C\C=C\[C@H](C)[C@H](O)[C@@H](C)[C@@H](O)[C@@H](C)[C@H](OC(C)=O)[C@@H]1C` [rifaximin, Rifaximin], the “amount of beta-galactosidase produced vs control” value [3] was “decreased in a dose-dependent fashion below the control values”, the “effect of adding bile acids to rifaximin on growth and protein synthesis” value (shortened to “effect of adding bile acids to rifaximin”) [4] was “increases its ability to inhibit the growth and protein synthesis” and the “inhibition of bacterial growth by rifaximin alone” value ([1]; 16 μg/mL rifaximin, absence of bile acids) was “statistically significant (p=0.026, n=4) inhibition of bacterial growth”. The “increase of anti-ETEC activity on addition of bile acids / human bile to rifaximin” value ([1]; after 4 hours) was “greater than 70%”, the “Cell density, 16 μg/mL RIFAXIMIN” value ([1]; rifaximin alone, no bile acids, after 4 hours of incubation, control of the bile acid named in the row) was 6.6 ± 0.50 ×10^8 bacteria/milliliter of c and 4.9 ± 1.0 ×10^8 bacteria/milliliter of c and the MIC [5] was 32 µg/mL (≈ 40.7 µM). The MIC [6] was 64 µg/mL (≈ 81.4 µM), the “average MICs of most coliform flora” value [7] was “about 32 μg/mL” and the “effect of adding bile acids to rifaximin” value [8] was “increases its ability to inhibit the growth and protein synthesis”. For the same molecule, the “percent decrease in total bacterial protein expression when bile acids added” value [9] was 59%, the MIC [10] was 0.025 µg/mL (≈ 0.0318 µM) and the MIC [11] was 64 µg/mL (≈ 81.4 µM). For the same molecule, the “effect of adding bile acids to rifaximin” value [12] was “increases its ability to inhibit the growth and protein synthesis” and the “in vitro minimal inhibitory concentration (MIC)” value [13] was 32 to 128 µg/mL.
